# Assay results taken from US20170107179A1 (Tetraphase Pharmaceuticals, Inc., priority 2010, published 2017).
# Key:
# [1] = system: E. coli DH10B EC1083 TetB; test: MIC, E. coli DH10B recombinantly expressing tetracycline-resistance gene; settings: arabinose-induced, ampicillin in medium
# E. coli DH10B EC971 LacZ = test: MIC, E. coli DH10B recombinantly expressing control gene; settings: E. coli DH10B, arabinose-induced, ampicillin in medium
# [2] = system: E. coli DH10B EC1082 TetA; test: MIC, E. coli DH10B recombinantly expressing tetracycline-resistance gene; settings: arabinose-induced, ampicillin in medium
# [3] = system: E. coli DH10B EC1153 Tet(X); test: as above; settings: arabinose-induced, ampicillin in medium
# [4] = system: Crl:SKH1-hr hairless mouse; test: In vivo phototoxicity, Crl:SKH1-hr hairless mouse model; settings: hairless mice, intracutaneous 0.0375 or 0.375 mg/mouse, UVA 20 J/cm^2, observed up to 3 days
# Description: To estimate its potential to produce phototoxicity in vivo, Compound 102 was tested in validated in vivo and in vitro models of acute phototoxic activity at Charles River Laboratories (See Spielmann, H., et al., The second ECVAM workshop on phototoxicity testing. The report and recommendations of ECVAM workshop 42. Altern Lab Anim, 2000. 28(6): p. 777-814; and Peters, B. and H. G. Holzhutter, In vitro phototoxicity testing: development and validation of a new concentration response analysis software and biostatistical analyses related to the use of various prediction models. Altern Lab Anim, 2002. 30(4): p. 415-32, the entire teachings of both are incorporated herein by reference).
# A vehicle control group was injected with normal saline. The pH of compound formulations was adjusted to 6.5±0.5 prior to injection. Immediately after administration, mice were lightly anesthetized via intraperitoneal injection of chloral hydrate in deionized water and then positioned on plastic tubing with laboratory tape. An aluminum foil mask with a single hole with a diameter of 1.3 cm (1.3 cm^2) was placed over the mid-dorsum injection site before UVA exposure. The distal administration site was shielded from UVA exposure. A UVA dose of no less than 20.0 and no more than 20.1 J/cm^2 at an intensity of 5±1 mW/cm^2 at the level of the mice was delivered during the exposure period. […]
# E. coli DH10B EC970 TetK = test: MIC, E. coli DH10B recombinantly expressing tetracycline-resistance gene; settings: arabinose-induced, ampicillin in medium
# E. coli DH10B EC969 TetM = test: as above; settings: arabinose-induced, ampicillin in medium
smiles,measurement,setting,value
"CN(C)c1ccc(O)c2c1C[C@H]1C[C@H]3[C@H](N(C)C)C(O)=C(C(N)=O)C(=O)[C@@]3(O)C(O)=C1C2=O [Minocycline, minocycline]",MIC EC1083 TetB,[1],16
same,MIC EC971 LacZ,E. coli DH10B EC971 LacZ,0.5
same,MIC EC1082 TetA,[2],8
same,MIC EC1153 Tet(X),[3],4
same,"phototoxicity, skin reactions at site of UVA exposure",[4],no skin reaction at either dose
same,MIC EC970 TetK,E. coli DH10B EC970 TetK,1
same,MIC EC969 TetM,E. coli DH10B EC969 TetM,64
